Data reported in PubChem BioAssay AID248 (DTP/NCI, 2004).
Values joined by “and” are separate entries in the source; they are usually repeats but may differ in a detail not shown here. Equal values may be shown once. Inconclusive results and toxic doses are left out.

Test system: L1210 leukemia ip in BDF1 mice, survival T/C
Test: NCI In Vivo Anticancer Drug Screen. Data for tumor model L1210 Leukemia (intraperitoneal) in B6D2F1 (BDF1) mice
Conditions: endpoint: mean survival time, higher = longer survival
How it was run: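 Ratio derived from survival: compound-dosed mice over vehicle-dosed mice, all bearing a transplantable tumor.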

[1] = dose: 75.0 mg/kg/injection, schedule: Q01DX001 (ip), vehicle: saline
[2] = dose: 75.0 mg/kg/injection, schedule: Q04DX003 (ip), vehicle: saline
[3] = dose: 150.0 mg/kg/injection, schedule: Q01DX001 (ip), vehicle: saline
[4] = dose: 150.0 mg/kg/injection, schedule: Q04DX003 (ip), vehicle: saline
[5] = dose: 100.0 mg/kg/injection, schedule: Q04DX003 (ip), vehicle: Klucel (hydroxypropylcellulose) (HPC)
[6] = dose: 200.0 mg/kg/injection, schedule: Q04DX003 (ip), vehicle: Klucel (hydroxypropylcellulose) (HPC)
[7] = dose: 400.0 mg/kg/injection, schedule: Q04DX003 (ip), vehicle: Klucel (hydroxypropylcellulose) (HPC)
[8] = dose: 100.0 mg/kg/injection, schedule: Q01DX001 (ip), vehicle: carboxymethylcellulose (CMC)
[9] = dose: 200.0 mg/kg/injection, schedule: Q01DX001 (ip), vehicle: carboxymethylcellulose (CMC)
[10] = dose: 400.0 mg/kg/injection, schedule: Q01DX001 (ip), vehicle: carboxymethylcellulose (CMC)
[11] = dose: 100.0 mg/kg/injection, schedule: Q04DX002 (ip), vehicle: saline with Tween-80
[12] = dose: 200.0 mg/kg/injection, schedule: Q04DX002 (ip), vehicle: saline with Tween-80
[13] = dose: 400.0 mg/kg/injection, schedule: Q04DX002 (ip), vehicle: saline with Tween-80

## CNC(=O)c1cc(C(=O)NC)c[n+](Cc2c(Cl)cccc2Cl)c1
dose: 18.75 mg/kg/injection, schedule: Q01DX009 (ip), vehicle: saline
  T/C: 92 % of control
dose: 37.5 mg/kg/injection, schedule: Q01DX009 (ip), vehicle: saline
  T/C: 103 % of control
dose: 37.5 mg/kg/injection, schedule: Q04DX003 (ip), vehicle: saline
  T/C: 100 % of control
[1]
  T/C: 96 % of control
dose: 75.0 mg/kg/injection, schedule: Q01DX009 (ip), vehicle: saline
  T/C: 100 % of control
[2]
  T/C: 105 % of control
[3]
  T/C: 98 % of control
[4]
  T/C: 97 % of control

## O=NN(CCCl)C(=O)NC12CC3CC(CC(C3)C1)C2
dose: 62.0 mg/kg/injection, schedule: Q01DX001 (ip), vehicle: carboxymethylcellulose (CMC)
  T/C: 270 % of control
dose: 93.0 mg/kg/injection, schedule: Q01DX001 (ip), vehicle: carboxymethylcellulose (CMC)
  T/C: 250 % of control
dose: 125.0 mg/kg/injection, schedule: Q01DX001 (ip), vehicle: carboxymethylcellulose (CMC)
  T/C: 255 % of control
dose: 187.0 mg/kg/injection, schedule: Q01DX001 (ip), vehicle: carboxymethylcellulose (CMC)
  T/C: 182 % of control

## O=S(=O)(c1ccccc1)N1CC2C3C=CC(C3)C2C1 (configuration not stated)
[5]
  T/C: 93 % of control
[6]
  T/C: 109 % of control
[7]
  T/C: 95 % of control

## CCOC(=O)c1ccc2c(ccc[n+]2C)c1
[1]
  T/C: 97 % of control
[2]
  T/C: 107 % of control
[3]
  T/C: 97 % of control
[4]
  T/C: 105 % of control
dose: 300.0 mg/kg/injection, schedule: Q01DX001 (ip), vehicle: saline
  T/C: 95 % of control

## CNC(C)(C)C(SS)c1ccc(Cl)cc1 (configuration not stated)
dose: 25.0 mg/kg/injection, schedule: Q01DX009 (ip), vehicle: saline with Tween-80
  T/C: 92 % of control
dose: 25.0 mg/kg/injection, schedule: Q04DX003 (ip), vehicle: saline with Tween-80
  T/C: 102 % of control
dose: 50.0 mg/kg/injection, schedule: Q01DX009 (ip), vehicle: saline with Tween-80
  T/C: 98 % of control
dose: 50.0 mg/kg/injection, schedule: Q04DX003 (ip), vehicle: saline with Tween-80
  T/C: 96 % of control
dose: 75.0 mg/kg/injection, schedule: Q01DX009 (ip), vehicle: saline with Tween-80
  T/C: 94 % of control
dose: 100.0 mg/kg/injection, schedule: Q04DX003 (ip), vehicle: saline with Tween-80
  T/C: 98 % of control

## CC(=Nc1ccccc1)C1=C(O)C(Cc2ccccc2)NC1=O (configuration not stated)
dose: 50.0 mg/kg/injection, schedule: Q01DX001 (ip), vehicle: carboxymethylcellulose (CMC)
  T/C: 101 % of control
[8]
  T/C: 103 % of control
dose: 178.0 mg/kg/injection, schedule: Q01DX001 (ip), vehicle: carboxymethylcellulose (CMC)
  T/C: 101 % of control and 102 % of control
[9]
  T/C: 120 % of control
dose: 267.0 mg/kg/injection, schedule: Q01DX001 (ip), vehicle: carboxymethylcellulose (CMC)
  T/C: 101 % of control and 109 % of control
[10]
  T/C: 101 % of control and 117 % of control

## CCc1nc2nnnn2c(CC)c1-c1ccccc1O
[11]
  T/C: 98 % of control
[12]
  T/C: 104 % of control
[13]
  T/C: 88 % of control

## O=C1CC(c2ccccc2)(c2ccccc2)c2cc(-c3ccccc3)c(-c3ccccc3)cc21
dose: 100.0 mg/kg/injection, schedule: Q04DX002 (ip), vehicle: Klucel (hydroxypropylcellulose) (HPC)
  T/C: 106 % of control
dose: 200.0 mg/kg/injection, schedule: Q04DX002 (ip), vehicle: Klucel (hydroxypropylcellulose) (HPC)
  T/C: 103 % of control
dose: 400.0 mg/kg/injection, schedule: Q04DX002 (ip), vehicle: Klucel (hydroxypropylcellulose) (HPC)
  T/C: 95 % of control

## CC(C)=CCNC(=O)NS(=O)(=O)c1ccc(Cl)cc1
[5]
  T/C: 103 % of control
[6]
  T/C: 103 % of control
[7]
  T/C: 100 % of control

## Clc1cccc(C2ON2C2CCCCC2)c1 (configuration not stated)
[8]
  T/C: 92 % of control
[9]
  T/C: 100 % of control
[10]
  T/C: 94 % of control

## Cn1c(C(O)(Cc2ccccn2)Cc2ccccn2)cc2ccccc21
[11]
  T/C: 90 % of control
[12]
  T/C: 90 % of control
[13]
  T/C: 97 % of control
